Measured values as given in patent EP2077105A1, “Ophthalmic Micellar Compositions with Enhanced Stability” (Novagali Pharma S.A., priority 2008, dated 2009).

Assay: Zeta potential of emulsion surface
Format: physicochemical
Conditions: 0.02% BAK and 0.002% CKC in emulsion
Excerpt: All the eye drops were supplied by Novagali Pharma (Evry, France) and were sterile with physiological pH and osmolality. The present Applicants chose to compare 0.02% BAK to 0.002% CKC since these two QAC concentrations confer equivalent positive charge to the emulsion surface (zeta potential around 20 mV).

## CCCCCCCCCCCCCCCC[N+](C)(C)Cc1ccccc1 [Cetalkonium chloride, cetalkonium chloride]
  zeta potential: around 20 mV
